Structures are written as SMILES.

The melting point is the temperature of the solid-liquid transition.

For `CSc1c(C(N)=S)nn(-c2c(Cl)cc(C(F)(F)F)cc2Cl)c1N`, the melting point was 161 °C.

The molecule `CC[S+]([O-])c1c(C(N)=S)nn(-c2c(Cl)cc(C(F)(F)F)cc2Br)c1N` (stereo not shown) yielded a melting point of 113.5 °C.

Molecule `CC[S+]([O-])c1c(C(N)=S)nn(-c2c(Cl)cc(OC(F)(F)F)cc2Cl)c1N` (stereo not shown) yielded a melting point of 102 °C.

With `NC(=S)c1nn(-c2c(Cl)cc(C(F)(F)F)cc2Cl)c(N)c1SC(F)(F)F`, the melting point worked out at 182 °C.

The molecule `C[S+]([O-])c1c(C(N)=S)nn(-c2c(Cl)cc(C(F)(F)F)cc2Cl)c1N` (stereo not shown) came in with a melting point of 192 °C.

Regarding `CS(=O)(=O)c1c(C(N)=S)nn(-c2c(Cl)cc(C(F)(F)F)cc2Cl)c1N`, the melting point turned out to be 231 °C.

In turn, `C[S+]([O-])c1c(C(N)=S)nn(-c2c(Cl)cc(C(F)(F)F)cc2Br)c1N` (stereo not shown) came in with a melting point of 188.5 °C.

The molecule `C[S+]([O-])c1c(C(N)=S)nn(-c2c(Cl)cc(OC(F)(F)F)cc2Cl)c1N` (stereo not shown) registered a melting point of 137 °C.

In turn, `CC[S+]([O-])c1c(C(N)=S)nn(-c2c(Cl)cc(C(F)(F)F)cc2Cl)c1N` (stereo not shown) registered a melting point of 167 °C.

Molecule `C[S+]([O-])c1c(C(N)=S)nn(-c2ccc(C(F)(F)F)cc2Cl)c1N` (stereo not shown) gave a melting point of 153.5 °C.

Values taken from US20020016468A1 (published 2002).
